Assays:
[1] = tested on: Human Pan T cells; experiment: IL2 & IFN-γ released by human pan T cell (ELISA); format: cell-based; conditions: for EC50 / Human Pan T cells EC2x (nM, IL-2): IL-2, anti-CD3/CD28 stimulation, 48 hours; for Human Pan T cells EC2x (nM, IL-2): concentration giving 200% response (2 folds) over DMSO control; for Max fold change: IL-2 response over DMSO control, human pan T cells
Excerpt: This example is an assay method that can be used to determine compound effects on IL2 & IFN-γ release using pan T cells and ELISA assay format.
Procedures for Pan T isolation and Reagent preparation (Day 0): • 1. Cell Growth Medium: • RPMI1640: ATCC, Cat# 30-2001 • 10% FBS: Gibco, Cat# 10099141 • 1% Pen-Strep: Gibco, Cat # 15140122 • 1% Non-essential amino: Gibco, Cat #11140050 • Beta- Mercaptoethanol: Gibco, Cat#21985023 • 2. Pan T isolation buffer preparation: • Prepare a solution containing phosphate-buffered saline (PBS), pH 7.2, 0.5% bovine serum albumin (BSA), and 2 mM EDTA by diluting MACS® BSA Stock Solution (# 130-091-376) 20 times with autoMACS® Rinsing Solution. Keep buffer at 4° C. Degas buffer before use, as air bubbles could block the column.
• 3. Thawing of frozen PBMC • 1) Pre-heat medium at 37° C. water bath. • 2) Rapidly thaw cells in 37° C. water bath. • 3) Add the pre-warmed medium into 15 mL tube. Transfer cells to the tube. • 4) 300 × g centrifuge for 8 min. (centrifuge increase 0, decrease 0). • 5) Wash the PBMC using Rinsing buffer. • 6) Centrifuge PBMC at 300 × g for 8 min, wash it twice (centrifuge increase 9, decrease 1). • 7) Resuspend the cells with Pan T cells isolation buffer and count cells number. • 4. Pan T cells isolation: • Cell staining with microbead cocktail • 1) Prepare cells and determine cell number. Filter cells by 70 µm cell strainer. • 2) Resuspend cell pellet in 40 µL of buffer per 10^7 total cells. • 3) Add 10 µL of Pan T Cell Biotin-Antibody Cocktail per 10^7 total cells. • 4) Mix well and incubate for 10 minutes in the refrigerator (ice). • 5) Add 30 µL of buffer per 10^7 total cells. • 6) Add 20 µL of Pan T Cell MicroBead Cocktail per 10^7 total cells. • 7) Mix well and incubate for 15 minutes in the refrigerator (ice). • 8) Proceed to subsequent magnetic cell separation.
Subsequent manual cell separation: • 1) Place LS Column in the magnetic field of a suitable MACS Separator. For details refer to the respective MACS Column data sheet. • 2) Prepare column by rinsing with 3 mL of buffer. • 3) Apply cell suspension onto the column. Collect flow-through, which represents the enriched T cells. • 4) Wash column with 5 mL of buffer. Collect unlabeled cells that pass through, representing the enriched T cells.
Reminder: Always wait until the column reservoir is empty before proceeding to the next step. • 5. Pan T cell FACS: • 1) Take out 50 µL of PBMC and Pan T cells to FACS tubes respectively. • 2) Incubate cells with anti-human CD3/CD4/CD8 antibodies (1 µL/1 µL/1 µL /tube) for 20 min at 4° C. For unstained control, incubate cells with FACS staining buffer. • 3) Wash 2 times with cold staining buffer (PBS with 0.2%BSA and 1 mM EDTA). • 4) Run FACS. Gate CD3^+, CD3^+CD4^+, and CD3^+CD8^+ population for % analysis. • 5) If the purity of Pan T cells is higher than 90%, dilute cell suspension to 1 million cells/mL with the appropriate volume of Cell Culture Media. • 6) Dispense the cell suspension into a sterile, disposable reservoir for future use.
Procedures for preparation of compounds and anti-human CD3/CD28 (Day 0): • 1. Compound preparation • Compound serial dilution (source plate 1000×) • Compounds are solubilized in 100% DMSO to a concentration of 10 mM. Then they were 3-fold serially diluted to 8-point doses. • 4× Compound dose preparation (inter plate: Corning-3599): • Prepare 4× compound solution in culture medium. Pipet up and down. For the ZPE control, prepare 0.4% DMSO (4×) in culture medium. For the HPE control, prepare 0.4 µM of RGT003-026 (4×) in culture medium. • 2. Anti-human CD3 (stock conc. 6.76 mg/ml): stored at 4° C. • 1) Dilute anti-human CD3 with PBS to final conc. of 0.5 µg/mL. • 2) Add 50 µL /well of CD3 to each well, except for the positive and negative control wells. […] Rinse each well twice with 200 µL of sterile PBS each time. • 3. […]

[2] = target: HPK1 (Homo sapiens (Human), UniProt Q92918); experiment: HPK1 biochemical assay (ADP-GLO Kinase Assay); conditions: ADP-GLO, 10 µM ATP, MBP substrate; read-out: HPK1 IC50
HPK1, sequence (Q92918 whole entry): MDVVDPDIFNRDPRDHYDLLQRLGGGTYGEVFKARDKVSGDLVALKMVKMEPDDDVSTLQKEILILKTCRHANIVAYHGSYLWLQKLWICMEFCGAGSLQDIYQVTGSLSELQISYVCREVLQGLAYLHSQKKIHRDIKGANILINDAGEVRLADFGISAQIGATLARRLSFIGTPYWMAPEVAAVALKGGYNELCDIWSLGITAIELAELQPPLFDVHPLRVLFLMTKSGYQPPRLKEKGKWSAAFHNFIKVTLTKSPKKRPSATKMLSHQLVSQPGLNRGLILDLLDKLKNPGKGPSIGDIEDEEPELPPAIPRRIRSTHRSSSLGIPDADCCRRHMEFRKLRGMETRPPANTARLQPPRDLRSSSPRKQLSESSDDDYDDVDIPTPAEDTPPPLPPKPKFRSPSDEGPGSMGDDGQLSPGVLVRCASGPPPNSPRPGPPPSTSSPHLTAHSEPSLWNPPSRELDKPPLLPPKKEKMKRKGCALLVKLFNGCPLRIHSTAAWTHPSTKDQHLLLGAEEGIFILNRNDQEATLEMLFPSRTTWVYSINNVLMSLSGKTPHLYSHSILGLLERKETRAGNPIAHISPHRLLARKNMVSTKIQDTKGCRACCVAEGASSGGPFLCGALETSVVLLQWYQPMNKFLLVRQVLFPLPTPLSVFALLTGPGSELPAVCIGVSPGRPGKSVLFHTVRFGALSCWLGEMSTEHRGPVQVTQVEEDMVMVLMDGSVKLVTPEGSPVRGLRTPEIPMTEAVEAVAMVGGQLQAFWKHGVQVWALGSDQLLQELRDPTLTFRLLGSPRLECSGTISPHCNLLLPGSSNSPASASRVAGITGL
Excerpt: This example used the ADP-GLO™ Kinase Assay to measure the effect of potential HPK1 inhibitor compounds on HPK1 kinase activity.
The ADP-GLO™ Kinase Assay (Promega Corp., Madison, WI) measures ADP formed from a kinase reaction. According to the manufacture, the ADP formed in a kinase assay is first converted into ATP, which is then used to generate light in a luciferase reaction. The luminescence generated correlates with kinase activity. An exemplary experimental setting is described below, though minor adjustments can be made in individual assays.
Serial 3-fold dilution of compoounds from 10 µM (top concentration) to 0.508 nM (lowest concentration). Positive control is 10 µM Reference + enzyme + substrate. Negative control is 1% DMSO + enzyme + substrate.
40 mM Tris pH7.5; 20 mM MgC12, 0.1 mg/ml BSA, 50 µM DTT Buffer stock
• 1) The compounds were diluted to 1 mM, by mixing 10 µL of 10 mM respective compound stocks with 90 µL of DMSO. • 2) The compounds were then diluted 3-fold for 10 doses (5 µL to 10 µL dilution) by BRAVO. The top compound conc. was 1 mM (100×), DMSO Conc. was 100%. • 3) Transfer 100 nL of each diluted compound sample to 384-well plate (Corning-4512) by ECHO. • 4) Centrifuge the plate at 1,500 rpm for 1 minute.
20 µM ATP, 0.2 µg/µL MBP in Kinase Buffer (final concentration: 10 µM ATP, 0.1 µg/µL MBP)
• 5. Preparation of 2× HPK1 working solution with assay buffer. HPK1 final concentration was 0.6 ng/µL. […] Add 5 µL/well of 2× HPK1 working solution, Centrifuge at 1,500 rpm for 1 minute. • 7. Add 5 µL/well of 2× ATP-Substrate, Centrifuge at 1,500 rpm for 1 minute. • 8. Incubate at 25° C. for 1 hour (or 6 hours for compounds with high potency). • 9. Add 5 µL/well ADP-GLO™ Reagent to stop the kinase reaction and deplete the unconsumed ATP. Centrifuge at 1,500 rpm for 1 minute. Incubate at 25° C. for 40 min. • 10. Add 10 µL of Kinase Detection Reagent to convert ADP to ATP. Centrifuge at 1,500 rpm for 1 minute. Incubate at 25° C. for 40 min. • 11. Record luminescence signal on an Envision plate reader (384-CTG).
The percent (%) inhibition at each concentration of compound is calculated based on and relative to the signal in the High and Low control wells contained within each assay plate. […] The concentrations and % inhibition values for tested compounds were plotted and the concentration of compound required for 50% inhibition (IC50) was determined with a Three-parameter logistic dose response equation. The endpoint value (IC50) for the reference peptide/compound was evaluated in each experiment as a quality control measure. If the endpoint value was within 3-fold of the expected value, then the experiment was deemed acceptable.

| EC50 [1] | IC50 [2] | EC50 ([1]; Homo sapiens, T-cell) | Compound | Human Pan T cells EC2x (nM, IL-2) [1] | Max fold change [1] |
| --- | --- | --- | --- | --- | --- |
| 911 nM | 24 nM |  | COc1cc2c(cc1Nc1ncc(Cl)c(N3C[C@@](C)(CC(=O)O)c4ccccc43)n1)CN(C)CC2 (single isomer, unassigned) [Example 3, (S)-2-(1-(5-chloro-2-((6-methoxy-2-methyl-1,2,3,4-tetrahydroisoquinolin-7-yl)amino)pyrimidin-4-yl)-3-methylindolin-3-yl)acetic acid or (R)-2-(1-(5-chloro-2-((6-methoxy-2-methyl-1,2,3,4-tetrahydroisoquinolin-7-yl)amino)pyrimidin-4-yl)-3-methylindolin-3-yl)acetic acid] | > 5760 (N = 2) nM | 1.96 (N = 2) |
|  | 1.1 nM | 68 nM | COc1cc2c(cc1Nc1ncc(Cl)c(N3CC(C)(CC(=O)O)c4cc(F)ccc43)n1)CN(C)CC2 (centres unmarked) [Compound 9, reference compound] | 62 (N = 2) nM | 3.24 (N = 2) |

From patent US20230339896A1, “HPK1 INHIBITORS AND USES THEREOF” (QILU REGOR THERAPEUTICS INC., priority 2020, published 2023)
